Measured values from US20250090510A1, “eIF4G1-eIF1 INHIBITORS AND USE THEREOF” (YEDA RESEARCH AND DEVELOPMENT CO. LTD., priority 2022, published 2025).
pIC50: −log10 of the molar value.

Columns and labels:
HEK293T cells = experiment: Puromycin labeling (puromycin-incorporation assay); format: cell-based; conditions: Homo sapiens, HEK-293T; 3 h treatment, puromycin 10 μg/ml 5 minutes; read-out: IC-50, nascent polypeptide puromycin labeling
Procedure: FIGS. 3A-F: i14G1-10 and i14G1-12 inhibit mRNA translation and sensitize cell survival of eIF4G1 and eIF1 depleted cells. (3A) In-vitro translation using rabbit reticulocyte lysate which was pre-incubated with different concentrations of i14G1-10 or i14G1-12 for 10 minutes followed by the addition of capped firefly luciferase mRNA. After 90 minutes at 30° C., the luminescence signal was measured and the IC50 was calculated. The data represents mean±SEM of 6 independent repeats. (3B) HEK293T cells were treated with DMSO (vehicle control), and sub-cytotoxic concentrations of i14G1-10 (20 μM) and i14G1-12 (10 μM) for 3h. Cell lysates were then subjected to sucrose gradient sedimentation to obtain polysome profiles. (3C) HEK293T cells were treated with the indicated concentrations of i14G1-10 and i14G-12 for 3 h, followed by the addition of puromycin (10 μg/ml) for 5 minutes, after which cells were lysed and analyzed by western blot using an anti-puromycin antibody and anti-GAPDH antibody that serves as a loading control. […] The calculated IC-50 is shown. […] The calculated IC-50 is shown. (3E) The graphs represent cell viability of the indicated cell lines in the presence of increasing concentrations of i14G1-10 and i14G1, analyzed by Luminescent Cell Viability Assay. […]

eIF1 = biological target: T1, eIF1 (Homo sapiens, UniProt P41567); experiment: Intrinsic fluorescence of His-eIF1; format: binding; conditions: 0-256 μM, 5 minutes
T1 construct: made in house; host or cells: E. coli BL21
Text: FIGS. 1A-G: Identification and initial characterization of eIF1-eIF4G1 inhibitors using a high-throughput drug screen (HTS). (1A) A flowchart describing the steps of the recombinant eIF1-eIF4G1 split-RL HTS. (1B) Selection of drugs that inhibit leaky scanning. HEK293T cells were transfected with a short 5′UTR bearing GFP reporter gene described on the top, treated with the indicated HTS hits, and then analyzed by western blot with GFP antibody. US and DS denote upstream and downstream AUG initiation sites, respectively. (1C) A graph showing the change in the ratio of the upstream and downstream AUG following treatment with the indicated drugs. (1D) The chemical structure of the eIF1-eIF4G1 inhibitors, i14G1-10 and i14G1-12. (1E) His-tagged eIF4G1 and His-tagged eIF1 were expressed in BL21 bacteria and purified using nickel NTA beads. Purified His-tagged eIF4G1 and His-tagged eIF1 were incubated with the indicated doses of either i14G1-10 (0-256 μM) or i14G1-12 (0-256 μM) for 5 minutes, followed by fluorescence measurement. […] IC50 was calculated using Graphpad prism 9. […]
Intrinsic fluorescence of His-eIF1 and His-eIF4G1. […] After 5 minutes, fluorescence (280/350) was measured on Cytation 5 multi-mode reader (Biotek). The fluorescence intensity values corresponding to respective concentration in both i14G1-10 and i14G1-12 treatments were plotted and IC50 was calculated using GraphPad Prism 9.0. […]

T1 sequence (P41567 whole entry): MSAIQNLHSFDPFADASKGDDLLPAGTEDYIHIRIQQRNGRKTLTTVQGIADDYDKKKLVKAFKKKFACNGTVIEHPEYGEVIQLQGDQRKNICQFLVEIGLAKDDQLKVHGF

Row | Structure (SMILES) | pIC50 (HEK293T cells) | intrinsic fluorescence of eIF1 (eIF1) | pIC50 (eIF1; excitation 274 nm, emission 304 nm, read-out: IC-50, decrease of eIF1 intrinsic fluorescence)
1 | O=C(/C=C/Sc1ccc(C(F)(F)F)cn1)c1ccccc1 [i14G1-10] | 4.69 | almost unchanged | –
2 | Cn1ccnc1S/C(=C/C=C(C#N)C#N)c1ccc(Cl)cc1 [i14G1-12] | 5.30 | – | 4.27
